Reference: ChEMBL document CHEMBL3045571, “Repellent activity of essential oils and some of their individual constituents against Tribolium castaneum herbst” (J Agric Food Chem, 2011)

Tests used:
[1] = system: Tribolium castaneum; assay: Repellent activity against Tribolium castaneum (red flour beetle) assessed as induction of repellency measured 4 hr post compound exposure at 0.2 uL/cm2 using 15% compound formulation; assay type: functional
[2] = system: Tribolium castaneum; assay: Repellent activity against Tribolium castaneum (red flour beetle) assessed as induction of repellency measured 4 hr post compound exposure at 0.02 uL/cm2 using 15% compound formulation; assay type: functional
[3] = system: Tribolium castaneum; assay: Repellent activity against Tribolium castaneum (red flour beetle) assessed as induction of repellency measured 4 hr post compound exposure at 0.002 uL/cm2 using 15% compound formulation; assay type: functional
[4] = system: Tribolium castaneum; assay: Repellent activity against Tribolium castaneum (red flour beetle) assessed as induction of repellency measured 4 hr post compound exposure at 0.0002 uL/cm2 using 15% compound formulation; assay type: functional
[5] = system: Tribolium castaneum; assay: Repellent activity against Tribolium castaneum (red flour beetle) assessed as induction of repellency measured 4 hr post compound exposure at 0.00002 uL/cm2 using 15% compound formulation; assay type: functional
[6] = system: Tribolium castaneum; assay: Repellent activity against Tribolium castaneum (red flour beetle) assessed as induction of repellency measured 2 hr post compound exposure at 0.2 uL/cm2 using 15% compound formulation; assay type: functional
[7] = system: Tribolium castaneum; assay: Repellent activity against Tribolium castaneum (red flour beetle) assessed as induction of repellency measured 2 hr post compound exposure at 0.02 uL/cm2 using 15% compound formulation; assay type: functional
[8] = system: Tribolium castaneum; assay: Repellent activity against Tribolium castaneum (red flour beetle) assessed as induction of repellency measured 2 hr post compound exposure at 0.002 uL/cm2 using 15% compound formulation; assay type: functional
[9] = system: Tribolium castaneum; assay: Repellent activity against Tribolium castaneum (red flour beetle) assessed as induction of repellency measured 2 hr post compound exposure at 0.0002 uL/cm2 using 15% compound formulation; assay type: functional
[10] = system: Tribolium castaneum; assay: Repellent activity against Tribolium castaneum (red flour beetle) assessed as induction of repellency measured 2 hr post compound exposure at 0.00002 uL/cm2 using 15% compound formulation; assay type: functional
[11] = Lipophilicity, logP of the compound; assay type: physicochemical; conditions: octanol/water

logP [11] | SMILES | Repellency [1] [%] | Repellency [2] [%] | Repellency [3] [%] | Repellency [4] [%] | Repellency [5] [%] | Repellency [6] [%] | Repellency [7] [%] | Repellency [8] [%] | Repellency [9] [%] | Repellency [10] [%]
 | CCCCN(CCC(=O)OCC)C(C)=O | 75 | 50 | 40 | 4 | -6 | 78 | 60 | 54 | 16 | 2
3.07 | C=C(C)[C@H]1CC=C(C)C(=O)C1 [(S)(+)CARVONE] | 94 | 85 | 30 | 21 | -10 | 96 | 91 | 53 | 45 | -10
 | O=C(OCc1ccccc1)c1ccccc1 [BENZYL BENZOATE] | 91 | 44 | 23 | 18 | 6 | 93 | 44 | 16 | 14 | 3
 | O=C(OCc1ccccc1)c1ccccc1O [BENZYL SALICYLATE] | 99 | 78 | 46 | 25 | -34 | 94 | 74 | 65 | 29 | -29
 | Cc1ccc(C(C)C)cc1O [CARVACROL] | 90 | 48 | -6 | 8 | 5 | 86 | 46 | -3 | 9 | 8
 | CC(C)=CCC/C(C)=C/C=O [CITRAL] | 98 | 79 | 55 | 51 | 21 | 98 | 89 | 66 | 64 | 18
 | CC(C)=CCCC(C)CCO (configuration not stated) [CITRONELLOL] | 96 | 85 | 60 | 43 | 40 | 96 | 74 | 59 | 45 | 30
 | CC(C)=CCC/C(C)=C/CO [GERANIOL] | 95 | 74 | 58 | 35 | 4 | 98 | 75 | 64 | 43 | 6
 | CC(=O)OC/C=C(\C)CCC=C(C)C [GERANYL ACETATE] | 94 | 63 | 24 | 23 | 8 | 95 | 60 | 21 | 21 | 5
 | C=C(C)[C@@H]1CC=C(C)C(=O)C1 [L-CARVONE] | 95 | 74 | 68 | 44 | 19 | 100 | 84 | 55 | 35 | 21
 | C=CC(=C)CCC=C(C)C [MYRCENE] | 93 | 71 | 65 | 30 | 25 | 85 | 61 | 56 | 33 | 28
3.47 | CC(C)=CCC/C(C)=C\CO [NEROL] | 95 | 75 | 60 | 30 | 8 | 98 | 84 | 64 | 39 | 8
 | Cc1ccc(C(C)C)cc1 [P-CYMENE] | 69 | 45 | 44 | -8 | -5 | 74 | 61 | 43 | -10 | -6
